Molecular target: T1, ΔF508-CFTR (Homo sapiens, UniProt P13569, DEL508-508)
T1 construct: expressed in transfected cells
Experiment: Membrane potential optical assay for ΔF508-CFTR correction (single-addition HTS format)
Format: cell-based
Conditions: NIH 3T3 cells expressing ΔF508-CFTR, 16-24 hrs with test compound, 10 µM forskolin and genistein (20 µM); for EC50: read-out: Binned EC50; for Emax: NIH3T3, read-out: Binned Max Efficacy
Text: Membrane potential optical methods for assaying ΔF508-CFTR modulation properties of compounds.
The assay utilizes fluorescent voltage sensing dyes to measure changes in membrane potential using a fluorescent plate reader (e.g., FLIPR III, Molecular Devices, Inc.) as a readout for increase in functional ΔF508-CFTR in NIH 3T3 cells. The driving force for the response is the creation of a chloride ion gradient in conjunction with channel activation by a single liquid addition step after the cells have previously been treated with compounds and subsequently loaded with a voltage sensing dye.
To identify small molecules that correct the trafficking defect associated with ΔF508-CFTR; a single-addition HTS assay format was developed. Assay Plates containing cells are incubated for ∼2-4 hours in tissue culture incubator at 37°C, 5%CO2, 90% humidity. Cells are then ready for compound exposure after adhering to the bottom of the assay plates.
The cells were incubated in serum-free medium for 16-24 hrs in tissue culture incubator at 37°C, 5%CO2, 90% humidity in the presence or absence (negative control) of test compound. The cells were subsequently rinsed 3X with Krebs Ringers solution and loaded with a voltage sensing redistribution dye. To activate ΔF508-CFTR, 10 µM forskolin and the CFTR potentiator, genistein (20 µM), were added along with Cl^--free medium to each well. The addition of Cl^--free medium promoted Cl^- efflux in response to ΔF508-CFTR activation and the resulting membrane depolarization was optically monitored using voltage sensor dyes.
Bath Solution #1: (in mM) NaCl 160, KCl 4.5, CaCl2 2, MgCl2 1, HEPES 10, pH 7.4 with NaOH.
Chloride-free bath solution: Chloride salts in Bath Solution #1 are substituted with gluconate salts.
NIH3T3 mouse fibroblasts stably expressing ΔF508-CFTR are used for optical measurements of membrane potential. The cells are maintained at 37 °C in 5% CO2 and 90 % humidity in Dulbecco's modified Eagle's medium supplemented with 2 mM glutamine, 10 % fetal bovine serum, 1 X NEAA, β-ME, 1 X pen/strep, and 25 mM HEPES in 175 cm^2 culture flasks. For all optical assays, the cells were seeded at […] in 384-well matrigel-coated plates and cultured for 2 hrs at 37 °C before culturing at 27 °C for 24 hrs. for the potentiator assay. For the correction assays, the cells are cultured at 27 °C or 37 °C with and without compounds for 16 - 24 hours.

T1 sequence (P13569 with tags, fused parts or gaps DEL508-508): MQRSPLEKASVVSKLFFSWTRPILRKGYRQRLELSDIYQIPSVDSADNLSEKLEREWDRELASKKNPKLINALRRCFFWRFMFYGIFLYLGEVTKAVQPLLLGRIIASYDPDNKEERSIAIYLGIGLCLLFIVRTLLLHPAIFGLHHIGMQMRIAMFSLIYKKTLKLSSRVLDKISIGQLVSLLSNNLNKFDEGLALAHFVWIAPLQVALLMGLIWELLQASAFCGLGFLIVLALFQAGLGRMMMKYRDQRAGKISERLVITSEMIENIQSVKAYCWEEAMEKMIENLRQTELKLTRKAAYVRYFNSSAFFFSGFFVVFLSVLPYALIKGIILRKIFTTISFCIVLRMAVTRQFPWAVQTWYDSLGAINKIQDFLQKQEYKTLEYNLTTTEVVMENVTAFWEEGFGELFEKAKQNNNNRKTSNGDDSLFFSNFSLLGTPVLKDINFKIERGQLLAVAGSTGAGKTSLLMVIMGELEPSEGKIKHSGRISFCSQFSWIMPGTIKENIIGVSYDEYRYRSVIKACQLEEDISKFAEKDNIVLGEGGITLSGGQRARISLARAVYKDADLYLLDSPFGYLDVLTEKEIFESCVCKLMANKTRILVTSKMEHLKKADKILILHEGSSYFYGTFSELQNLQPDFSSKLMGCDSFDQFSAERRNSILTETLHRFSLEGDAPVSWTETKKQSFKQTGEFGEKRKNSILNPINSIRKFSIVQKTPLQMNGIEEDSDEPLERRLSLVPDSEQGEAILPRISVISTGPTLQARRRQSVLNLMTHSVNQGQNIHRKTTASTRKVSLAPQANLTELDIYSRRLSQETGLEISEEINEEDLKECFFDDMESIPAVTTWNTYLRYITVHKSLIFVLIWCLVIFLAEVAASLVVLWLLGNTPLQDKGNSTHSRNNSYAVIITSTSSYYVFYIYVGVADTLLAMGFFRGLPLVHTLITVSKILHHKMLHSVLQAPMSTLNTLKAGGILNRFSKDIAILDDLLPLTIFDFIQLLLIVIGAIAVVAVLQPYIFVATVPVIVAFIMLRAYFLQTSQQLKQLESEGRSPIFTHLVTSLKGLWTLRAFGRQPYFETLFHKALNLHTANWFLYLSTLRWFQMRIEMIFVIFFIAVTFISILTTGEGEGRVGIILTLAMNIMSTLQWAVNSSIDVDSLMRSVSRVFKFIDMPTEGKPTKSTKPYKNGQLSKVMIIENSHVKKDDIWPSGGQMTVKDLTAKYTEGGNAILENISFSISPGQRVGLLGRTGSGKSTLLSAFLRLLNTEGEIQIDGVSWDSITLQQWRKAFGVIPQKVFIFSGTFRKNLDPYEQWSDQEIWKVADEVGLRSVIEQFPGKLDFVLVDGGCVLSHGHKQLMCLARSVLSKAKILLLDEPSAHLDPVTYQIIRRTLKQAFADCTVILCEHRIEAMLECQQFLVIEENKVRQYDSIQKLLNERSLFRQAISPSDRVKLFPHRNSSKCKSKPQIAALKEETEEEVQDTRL

Molecule | Binned Max Efficacy | EC50 | Emax
2-(2-tert-butyl-5-(1-(2,2-difluorobenzo[d][1,3]dioxol-5-yl)cyclopropanecarboxamido)-6-fluoro-1H-indol-1-yl)-N,N,N-trimethylethanaminium chloride [Compound 308] | +++ ("+++" means > 100%) | 2 to 5 µM | 
CC(C)(CCOC[C@@H](O)CO)c1cc2cc(NC(=O)C3(c4ccc5c(c4)OC(F)(F)O5)CC3)c(F)cc2[nH]1 [Compound 309, (S)-1-(2,2-difluorobenzo[d][1,3]dioxol-5-yl)-N-(2-(4-(2,3-dihydroxypropoxy)-2-methylbutan-2-yl)-6-fluoro-1H-indol-5-yl)cyclopropanecarboxamide] |  | < 2 µM | > 100%
CC(C)(CCOC[C@@H](O)CO)c1cc2cc(NC(=O)C3(c4ccc5c(c4)OC(F)(F)O5)CC3)c(F)cc2n1C[C@@H](O)CO [Compound 310, 1-(2,2-difluorobenzo[d][1,3]dioxol-5-yl)-N-(2-(4-((S)-2,3-dihydroxypropoxy)-2-methylbutan-2-yl)-1-((R)-2,3-dihydroxypropyl)-6-fluoro-1H-indol-5-yl)cyclopropanecarboxamide] |  | < 2 µM | > 100%
CC(C)(CCO)c1cc2cc(NC(=O)C3(c4ccc5c(c4)OC(F)(F)O5)CC3)c(F)cc2n1C[C@@H](O)CO [Compound 311, (R)-1-(2,2-difluorobenzo[d][1,3]dioxol-5-yl)-N-(1-(2,3-dihydroxypropyl)-6-fluoro-2-(4-hydroxy-2-methylbutan-2-yl)-1H-indol-5-yl)cyclopropanecarboxamide] |  | < 2 µM | > 100%
CC(C)(C)c1cc2c(C#N)c(NC(=O)C3(c4ccc5c(c4)OC(F)(F)O5)CC3)ccc2n1CCO [Compound 315, N-(2-tert-butyl-4-cyano-1-(2-hydroxyethyl)-1H-indol-5-yl)-1-(2,2-difluorobenzo[d][1,3]dioxol-5-yl)cyclopropanecarboxamide] |  | < 2 µM | > 100%
CC(C)(C)c1cc2cc(NC(=O)C3(c4ccc5c(c4)OCO5)CC3)c(F)cc2n1CC(O)CO (stereo not drawn) [Compound 318] |  | < 2 µM | > 100%
